# Reference: PMC13267291, “In vivo functional profiling and structural characterization of the human GLP1R A316T variant” (Science Advances, 2026)
# Columns and labels:
# [1] = tested on: SNAP/FLAG-hGLP1R^A316T versus ^WT; assay: GLP-1R conformational ECD opening TR-FRET assay; type: cell-based, human; conditions: serial doses, 30 min; n = 5; Fig. 8E
# Experimental: Nb37 bystander NanoBiT assays
# INS-1 832/3 Glp1r-/- cells were seeded in 6-well plates and co-transfected with the following plasmids:
# 200 ng pSNAP/FLAG-hGLP1RWT or A316T, 500 ng Gαs (human, short isoform), 500 ng Gβ1 (human), 500 ng Gγ2 (human), 100 ng RIC8B (human, isoform 2), and either 100 ng LgBiT-CAAX (KRAS CAAX motif N-terminally fused with LgBiT) or 500 ng Endofin-LgBiT (Endofin FYVE domain C-terminally fused with LgBiT), plus 100 ng (plasma membrane assay) or 500 ng (endosomal assay) SmBiT-Nb37 [Nb37 cDNA synthesised by GenScript C- terminally fused to SmBiT with a 15 amino acid flexible linker (123) ] and adjusted for total DNA with pcDNA3.1 for the LgBiT-CAAX transfection. 24 hours after transfection, cells were exposed to NanoGlo Live Cell Reagent (Promega) with furimazine (1:20 dilution) and bioluminescence read in a Flexstation 3 plate reader for 8 min before and 30 min after stimulation by […]
# AUCs were calculated for each agonist concentration and fitted to log(agonist) versus response four-parameter curves using GraphPad Prism 10.1.2, with logEC50 (potency) and Emax (efficacy) calculated for each replicate dose response curve. Baseline endosomal over plasma membrane bioluminescence ratios were also calculated.
# GLP- 1R conformational ECD opening time resolved-fluorescence resonance energy transfer (TR- […]
# signal serially monitored for 30 min. […]
# [2] = tested on: SNAP/FLAG-hGLP1R^A316T versus ^WT; assay: GLP-1R ubiquitination assay; type: cell-based, rat; conditions: 100 nM, 10 min; n = 5; Fig. 8K
# Experimental: INS-1 832/3 Glp1r-/- SNAP/FLAG-hGLP1RWT or A316T cells plated onto 6- cm dishes were stimulated ± 100 nM exendin-4 for 10 min, washed with PBS and osmotically lysed in lysis buffer (50 mM tris-HCl, pH 7.4, 150 mM NaCl, 1% Triton X-100, 1 mM EDTA) with 1% protease inhibitor (Roche) and 1% phosphatase inhibitor cocktail (Sigma-Aldrich) at 4°C. Cell lysates were centrifuged at 12,000 g and 4°C for 10 min prior to the addition of 40 μL anti- FLAG M2 beads (A2220, Sigma-Aldrich) and overnight rotating incubation at 4°C to increase FLAG-tag binding efficiency. Samples were then centrifuged at 5,000 g for 30 s, bead pellets washed 3x in 500 μL wash buffer (50 mM Tris-HCl, 150 mM NaCl, pH 7.4), and proteins eluted with 2x urea buffer at 37°C for 10 min before Western blot analysis with anti-ubiquitin antibody (1:1,000; sc-8017, Santa Cruz Biotechnology) and sheep anti-mouse HRP secondary (1:5,000; ab6808, Abcam) followed by stripping and reblotting with anti-SNAP antibody as above to assess immunoprecipitated receptor per sample. GLP-1R ubiquitination was calculated from ubiquitin over SNAP band intensity levels under the different conditions tested using Fiji.
# LC- MS/MS G LP-1R interactome analysis
# INS-1 832/3 Glp1r-/- SNAP/FLAG-hGLP1RWT or A316T cells were plated onto 6-cm dishes and stimulated with vehicle or 100 nM GLP-1RA for 5 min as previously described (63). […]
substance,measurement,setting,value
GLP-1(7-36)NH2,"TR-FRET (ECD opening) in response to agonist, A316T versus WT",[1],significantly increased
exendin-4,Effect of agonist stimulation on WT GLP-1R ubiquitination level,[2],did not affect
same,Effect of agonist stimulation on ubiquitination of the A316T receptor,[2],significantly increased
